According to US8404708B2, “Dual NK1/NK3 receptor antagonists” (Hoffmann-La Roche Inc., priority 2004, dated 2013):
Read-outs that look alike come from different tables or passages of the source.

Key:
[1] = molecular target: human NK1 receptor (Homo sapiens, UniProt P25103); assay: NK1 receptor binding, [3H]substance P displacement, CHO cell membranes
[2] = molecular target: T1, Recombinant human NK3 (hNK3) receptor (Homo sapiens, UniProt P29371); assay: NK3 receptor binding, [3H]SR142801 displacement, membrane preparations
T1 construct: expressed in transfected cells
T1 sequence (P29371 1-465): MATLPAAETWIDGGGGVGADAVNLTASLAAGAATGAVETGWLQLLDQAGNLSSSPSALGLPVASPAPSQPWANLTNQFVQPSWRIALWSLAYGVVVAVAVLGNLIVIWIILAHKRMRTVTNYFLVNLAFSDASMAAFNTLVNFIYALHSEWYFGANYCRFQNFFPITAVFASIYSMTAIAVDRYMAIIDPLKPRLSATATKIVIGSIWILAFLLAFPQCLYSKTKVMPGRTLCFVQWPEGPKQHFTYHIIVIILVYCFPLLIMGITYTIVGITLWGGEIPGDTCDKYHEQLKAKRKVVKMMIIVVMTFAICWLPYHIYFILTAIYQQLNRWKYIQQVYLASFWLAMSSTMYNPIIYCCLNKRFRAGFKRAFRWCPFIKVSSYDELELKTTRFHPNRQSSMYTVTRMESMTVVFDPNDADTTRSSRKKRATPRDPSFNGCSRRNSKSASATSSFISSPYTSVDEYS
Description: Non specific binding was determined using 10 μM SB222200. Assay buffer consisted of Tris-HCl (50 mM, pH 7.4), BSA (0.1%), MnCl2 (4 mM) and phosphoramidon (1 μM). Membrane preparations of hNK3 receptors (approximately 2.5 μg/well in a 96 well plate) were used to initiate the incubation for 90 min at room temperature. This assay was terminated by rapid filtration under vacuum through GF/C filters, presoaked for 90 min with PEI (0.3%), with 3×0.5 ml washes of ice-cold Tris buffer (50 mM, pH 7.4) containing 0.1% BSA. The radioactivity retained on the filters was measured by scintillation counting. All assays were performed in duplicate in at least two separate experiments.

[3] = first value of the cell pKi NK1/NK3, human NK1 receptor, [3H]substance P
[4] = second value of the cell pKi NK1/NK3, hNK3 receptor, [3H]SR142801
[5] = first value of the cell NK1/NK3, read-out: pKi NK1 (converted)
[6] = second value of the cell NK1/NK3, read-out: pKi NK3 (converted)

Sequence of human NK1 receptor (P25103 whole entry): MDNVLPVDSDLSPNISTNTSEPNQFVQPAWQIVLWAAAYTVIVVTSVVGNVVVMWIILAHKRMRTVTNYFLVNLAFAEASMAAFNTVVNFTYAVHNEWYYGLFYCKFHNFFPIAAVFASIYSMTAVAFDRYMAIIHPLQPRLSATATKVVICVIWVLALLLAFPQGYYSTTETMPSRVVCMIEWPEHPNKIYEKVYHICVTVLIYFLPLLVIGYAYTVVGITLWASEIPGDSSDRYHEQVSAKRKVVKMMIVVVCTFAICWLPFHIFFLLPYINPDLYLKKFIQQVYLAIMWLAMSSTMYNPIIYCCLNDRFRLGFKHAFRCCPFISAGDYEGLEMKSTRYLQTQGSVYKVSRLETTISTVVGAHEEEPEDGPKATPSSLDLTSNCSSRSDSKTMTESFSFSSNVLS

| SMILES | Ki [1, 3] [nM] | Ki [2, 4] [nM] | Ki [1, 5] [nM] | Ki [2, 6] [nM] |
| --- | --- | --- | --- | --- |
| Cc1cc(F)ccc1-c1cc(N2CCC[C@H]2CO)ncc1N(C)C(=O)C(C)(C)c1cc(Cl)cc(OC(F)F)c1 [Example 38, (S)-2-(3-Chloro-5-difluoromethoxy-phenyl)-N-[4-(4-fluoro-2-methyl-phenyl)-6-(2-hydroxymethyl-pyrrolidin-1-yl)-pyridin-3-yl]-N-methyl-isobutyramide] | 3.55 | 2.24 |  |  |
| CN(C(=O)C(C)(C)c1cc(C(F)(F)F)cc(C(F)(F)F)c1)c1cnc(NCCS(C)(=O)=O)cc1-c1ccccc1Cl [Example 89, 2-(3,5-Bis-trifluoromethyl-phenyl)-N-[4-(2-chloro-phenyl)-6-(2-methanesulfonyl-ethylamino)-pyridin-3-yl]-N-methyl-isobutyramide] | 0.49 | 3.24 |  |  |
| CN(C(=O)C(C)(C)c1cc(C(F)(F)F)cc(C(F)(F)F)c1)c1cnc(N2C[C@H](O)C[C@H]2CO)cc1-c1ccccc1N [Example 213, (2S,4R)-N-[4-(2-Amino-phenyl)-6-(4-hydroxy-2-hydroxymethyl-pyrrolidin-1-yl)-pyridin-3-yl]-2-(3,5-bis-trifluoromethyl-phenyl)-N-methyl-isobutyramide] |  |  | 0.661 | 3.24 |
| CN(C(=O)C(C)(C)c1cc(C(F)(F)F)cc(C(F)(F)F)c1)c1cnc(NCCO)cc1-c1ccc(Cl)cc1Cl [Example 70, 2-(3,5-Bis-trifluoromethyl-phenyl)-N-[4-(2,4-dichloro-phenyl)-6-(2-hydroxy-ethylamino)-pyridin-3-yl]-N-methyl-isobutyramide] | 2 | 4.07 |  |  |
| CN(C(=O)C(C)(C)c1cc(C(F)(F)F)cc(C(F)(F)F)c1)c1cnc(N2CCCCC2CCO)cc1-c1ccccc1Cl (racemic) [Example 53, (RS)-2-(3,5-Bis-trifluoromethyl-phenyl)-N-[4′-(2-chloro-phenyl)-2-(2-hydroxy-ethyl)-3,4,5,6-tetrahydro-2H-[1,2′]bipyridinyl-5′-yl]-N-methyl-isobutyramide] | 2.51 | 24.5 |  |  |
| CN(C(=O)C(C)(C)c1cc(C(F)(F)F)cc(C(F)(F)F)c1)c1cnc(N2C[C@H](O)C[C@H]2CO)cc1-c1ccc(F)cc1 [Example 202, (2S,4R)-2-(3,5-Bis-trifluoromethyl-phenyl)-N-[4-(4-fluoro-phenyl)-6-(4-hydroxy-2-hydroxymethyl-pyrrolidin-1-yl)-pyridin-3-yl]-N-methyl-isobutyramide] | 1.2 | 7.41 |  |  |
| CC(C)C[C@@H](CO)Nc1cc(-c2ccccc2Cl)c(N(C)C(=O)C(C)(C)c2cc(C(F)(F)F)cc(C(F)(F)F)c2)cn1 [Example 59, (S)-2-(3,5-Bis-trifluoromethyl-phenyl)-N-[4-(2-chloro-phenyl)-6-(1-hydroxymethyl-3-methyl-butylamino)-pyridin-3-yl]-N-methyl-isobutyramide] | 3.24 | 4.9 |  |  |
| CN(C(=O)C(C)(C)c1cc(C(F)(F)F)cc(C(F)(F)F)c1)c1cnc(N2C[C@@H](O)C[C@H]2CO)cc1-c1cccnc1Cl [Example 254, (2S,4S)-2-(3,5-Bis-trifluoromethyl-phenyl)-N-[2-chloro-6′-(4-hydroxy-2-hydroxymethyl-pyrrolidin-1-yl)-[3,4′]bipyridinyl-3′-yl]-N-methyl-isobutyramide] |  |  | 0.977 | 3.09 |
| C[C@H](O)[C@@H](CO)Nc1cc(-c2ccccc2Cl)c(N(C)C(=O)C(C)(C)c2cc(C(F)(F)F)cc(C(F)(F)F)c2)cn1 [Example 145, (1R,2S)-2-(3,5-Bis-trifluoromethyl-phenyl)-N-[4-(2-chloro-phenyl)-6-(2-hydroxy-1-hydroxymethyl-propylamino)-pyridin-3-yl]-N-methyl-isobutyramide] | 0.832 | 7.94 |  |  |
| CN(C(=O)C(C)(C)c1cc(C(F)(F)F)cc(C(F)(F)F)c1)c1cnc(N2C[C@H](O)C[C@H]2CO)cc1-c1ccccc1C(N)=O [Example 219, (2S,4R)-2-[5-{[2-(3,5-Bis-trifluoromethyl-phenyl)-2-methyl-propionyl]-methyl-amino}-2-(4-hydroxy-2-hydroxymethyl-pyrrolidin-1-yl)-pyridin-4-yl]-benzamide] |  |  | 1.45 | 20.4 |
| CN(C(=O)C(C)(C)c1cc(C(F)(F)F)cc(C(F)(F)F)c1)c1cnc(N2C[C@H](O)C[C@H]2CO)cc1-c1ccc(Cl)c(Cl)c1 [Example 135, (2S,4R)-2-(3,5-Bis-trifluoromethyl-phenyl)-N-[4-(3,4-dichloro-phenyl)-6-(4-hydroxy-2-hydroxymethyl-pyrrolidin-1-yl)-pyridin-3-yl]-N-methyl-isobutyramide] | 4.27 | 31.6 |  |  |
| Cc1cc(F)ccc1-c1cc(N2CCC[C@H]2CO)ncc1N(C)C(=O)C(C)(C)c1cc(Cl)cc(Cl)c1 [Example 22, (S)-2-(3,5-Dichloro-phenyl)-N-[4-(4-fluoro-2-methyl-phenyl)-6-(2-hydroxymethyl-pyrrolidin-1-yl)-pyridin-3-yl]-N-methyl-isobutyramide] | 5.13 | 1.17 |  |  |
| CN(C(=O)C(C)(C)c1cc(C(F)(F)F)cc(C(F)(F)F)c1)c1cnc(N2CCC[C@H]2CO)cc1-c1ccccc1F [Example 282, (S)-2-(3,5-Bis-trifluoromethyl-phenyl)-N-[4-(2-fluoro-phenyl)-6-(2-hydroxymethyl-pyrrolidin-1-yl)-pyridin-3-yl]-N-methyl-isobutyramide] |  |  | 3.09 | 2.24 |
| Cc1ccccc1-c1cc(NC(CO)CO)ncc1N(C)C(=O)C(C)(C)c1cc(C(F)(F)F)cc(C(F)(F)F)c1 [Example 143, 2-(3,5-Bis-trifluoromethyl-phenyl)-N-[6-(2-hydroxy-1-hydroxymethyl-ethylamino)-4-o-tolyl-pyridin-3-yl]-N-methyl-isobutyramide] | 3.02 | 3.63 |  |  |
| CN(C(=O)C(C)(C)c1cc(C(F)(F)F)cc(C(F)(F)F)c1)c1cnc(N[C@@H]2CCC[C@H]2O)cc1-c1ccccc1Cl [Example 152, (1R,2R)-2-(3,5-Bis-trifluoromethyl-phenyl)-N-[4-(2-chloro-phenyl)-6-(2-hydroxy-cyclopentylamino)-pyridin-3-yl]-N-methyl-isobutyramide] | 0.759 | 7.76 |  |  |
| CN(C(=O)C(C)(C)c1cc(C(F)(F)F)cc(C(F)(F)F)c1)c1cnc(N(CCO)CCCO)cc1-c1ccccc1Cl [Example 150, 2-(3,5-Bis-trifluoromethyl-phenyl)-N-{4-(2-chloro-phenyl)-6-[(2-hydroxy-ethyl)-(3-hydroxy-propyl)-amino]-pyridin-3-yl}-N-methyl-isobutyramide] | 1.32 | 0.977 |  |  |
| Cc1cc(F)ccc1-c1cc(NCCO)ncc1N(C)C(=O)C(C)(C)c1cc(C(F)(F)F)cc(C(F)(F)F)c1 [Example 68, 2-(3,5-Bis-trifluoromethyl-phenyl)-N-[4-(4-fluoro-2-methyl-phenyl)-6-(2-hydroxy-ethylamino)-pyridin-3-yl]-N-methyl-isobutyramide] | 1.45 | 3.24 |  |  |
| COc1ccccc1-c1cc(N2C[C@H](O)C[C@H]2CO)ncc1N(C)C(=O)C(C)(C)c1cc(C(F)(F)F)cc(C(F)(F)F)c1 [Example 214, (2S,4R)-2-(3,5-Bis-trifluoromethyl-phenyl)-N-[6-(4-hydroxy-2-hydroxymethyl-pyrrolidin-1-yl)-4-(2-methoxy-phenyl)-pyridin-3-yl]-N-methyl-isobutyramide] |  |  | 1.02 | 2.75 |
| COc1cc(OC)cc(C(C)(C)C(=O)N(C)c2cnc(N3C[C@H](O)C[C@H]3CO)cc2-c2ccc(F)cc2C)c1 [Example 403, (2S,4R)-2-(3,5-Dimethoxy-phenyl)-N-[4-(4-fluoro-2-methyl-phenyl)-6-(4-hydroxy-2-hydroxymethyl-pyrrolidin-1-yl)-pyridin-3-yl]-N-methyl-isobutyramide] |  |  |  | 5.75 |
| COc1cc(OC)cc(C(C)(C)C(=O)N(C)c2cnc(N3C[C@H](O)C[C@H]3CO)cc2-c2ccccc2C)c1 [Example 400, (2S,4R)-2-(3,5-Dimethoxy-phenyl)-N-[6-(4-hydroxy-2-hydroxymethyl-pyrrolidin-1-yl)-4-o-tolyl-pyridin-3-yl]-N-methyl-isobutyramide] |  |  |  | 6.03 |
| COc1cc(OC)cc(C(C)(C)C(=O)N(C)c2cnc(N3CCC[C@H]3CO)cc2-c2ccc(F)cc2C)c1 [Example 402, (S)-2-(3,5-Dimethoxy-phenyl)-N-[4-(4-fluoro-2-methyl-phenyl)-6-(2-hydroxymethyl-pyrrolidin-1-yl)-pyridin-3-yl]-N-methyl-isobutyramide] |  |  |  | 4.68 |
| COc1cc(OC)cc(C(C)(C)C(=O)N(C)c2cnc(NCCO)cc2-c2ccc(F)cc2C)c1 [Example 401, 2-(3,5-Dimethoxy-phenyl)-N-[4-(4-fluoro-2-methyl-phenyl)-6-(2-hydroxy-ethylamino)-pyridin-3-yl]-N-methyl-isobutyramide] |  |  |  | 20 |
